Measured values from patent US10316080B2, “Protein-polymer-drug conjugates” (priority 2013, dated 2019).

Tests used:
JIMT1 cells = assay: Cell viability assay (Cell Titer-Glo); assay type: cell-based; conditions: 72 h incubation; HER2 medium expression
Procedure: (§1) PBRM-polymer-drug conjugates were evaluated for their antiproliferation properties in tumor cell lines in vitro using Cell Titer-Glo (Promega Corp). Cells were plated in black walled 96-well plate and allowed to adhere overnight at 37° C. in a humidified atmosphere of 5% CO2. SKBR3, BT474, NCI-N87 cells (HER2 expressing cells), MCF7 cells (HER2 low expressing levels cells) and JIMT1 cells (HER2 medium expression level cells) were plated at a density of 5,000 cells per well. The next day the medium was replaced with 50 μL fresh medium and 50 μL of 2× stocks of PBRM-polymer-drug conjugate, drug polymer conjugate or drug were added to appropriate wells, mixed and incubated for 72 h. Cell Titer-Glo reagent was added to the wells at room temperature and the luminescent signal was measured after 10 min using a SpectraMax M5 plate reader (Molecular Devices). Dose response curves were generated using SoftMax Pro software. IC50 values were determined from four-parameter curve fitting.

NCI-N87 cells = assay: Cell viability assay (Cell Titer-Glo); assay type: cell-based; conditions: 72 h incubation
Procedure: as §1

SKBR3 cells = assay: Cell viability assay (Cell Titer-Glo); assay type: cell-based; conditions: 72 h incubation
Procedure: as §1

hErbB2 = hErbB2 (Homo sapiens, UniProt P04626); assay: Ligand binding by surface plasmon resonance (SPR); conditions: 25° C., immobilized hErbB2
Procedure: The kinetic binding of the PBRM-polymer-drug conjugate to an immobilized receptor was determined by BIAcore SPR.

MCF7 cells = assay: Cell viability assay (Cell Titer-Glo); assay type: cell-based; conditions: 72 h incubation; HER2 low expressing cells
Procedure: as §1

BT474 cells = assay: Cell viability assay (Cell Titer-Glo); assay type: cell-based; conditions: 72 h incubation
Procedure: as §1

LLC1 cells = assay: Cell viability assay (Cell Titer-Glo); assay type: cell-based; conditions: 5T4 negative control cells; second of two experiments
Procedure: as §1

HL-60 cells = assay: Cell viability assay (Cell Titer-Glo); assay type: cell-based; conditions: 72 h incubation; CD33 expressing cells
Procedure: Dose response curves were generated using SoftMax Pro software. IC50 values were determined from four-parameter curve fitting.
CD33 expressing cells HL-60 were passed at a density of 5,000 cells per well and treated with PBRM-polymer-drug conjugate on the same day. After 72 h incubation, the cells were analyzed using the same procedure described above.

A431 cells = assay: Cell viability assay (Cell Titer-Glo); assay type: cell-based; conditions: first of two experiments (first value in cell)
Procedure: as §1

[1] = Mouse tissue distribution after administration of PBRM-polymer-drug conjugates; assay type: in vivo, mice
Procedure: To determine the concentration of the free drug in the sample, the acidified sample was treated with acetonitrile. The free drug was extracted from the supernatant and analyzed by LC-MS/MS.
Female CB-17 SCID mice were inoculated subcutaneously with BT474 tumors (n=4 for each group).
At 48 hours post administration, the mice were sacrificed and the blood was collected by terminal cardiac.

Compound	IC50 (JIMT1 cells)	IC50 (NCI-N87 cells)	IC50 (SKBR3 cells)	ka (association rate constant) (hErbB2)	kd (dissociation rate constant) (hErbB2)	IC50 (MCF7 cells)	IC50 (BT474 cells)	IC50 (LLC1 cells)	IC50 (HL-60 cells)	IC50 (A431 cells)	Metabolism of released unconjugated AF-HPA in plasma ([1]; in plasma)	Metabolism of released unconjugated AF-HPA in tissue ([1]; in tissue)
ado-trastuzumab emtansine [Kadcyla ®]	18 nM	0.09 nM	0.23 nM	4.61 ± 0.2 × 10^5 M^−1s^−1	3.17 ± 0.9 × 10^−5 s^−1	38.6 nM	2.4 nM	–	–	–	–	–
CC[C@H](C)[C@@H]([C@@H](CC(=O)N1CCC[C@H]1[C@H](OC)[C@@H](C)C(=O)N[C@@H](Cc1ccccc1)C(=O)NCCCO)OC)N(C)C(=O)[C@@H](NC(=O)[C@H](C(C)C)N(C)C)C(C)C [AF-HPA, auristatin F hydroxypropyl amide]	0.86 nM	0.42 nM	–	–	–	4.4 nM	1.01 nM	> 100 nM	4.8 nM	0.7 nM	not converted to AF	further metabolized to AF
